According to patent publication US20210268030A1, “FIBROADIPOGENIC PROGENITOR-DERIVED EXOSOMES FOR REGENERATION OF DYSTROPHIC MUSCLES” (EXOFIX S.R.L., priority 2018, published 2021):

How the values were obtained:
[1] = test system: miRs within FAP-derived exosomes; test: Taqman-based miR expression microarray of FAP-derived exosomes; format: in vivo; conditions: mdx mice treated for 15 days with TSA vs control vehicle
Experimental: Total exosomal RNA was extracted with Total Exosome RNA Protein Isolation Kit (#4478545, Thermo Fisher Scientific). TaqMan MicroRNA Assays were performed according to the manufacturer's recommended protocols (Applied Biosystems) The threshold cycle (Ct) were defined as the fractional cycle number at which the fluorescence passes the fixed threshold. U6 snRNA served as an endogenous control for normalization.
In particular, total exosomal-RNA was retro-transcribed using TaqMan MicroRNA Reverse Transcription Kit (#4366596, ThermoFisher Scientific)
For greater sensitivity, the cDNA was pre-amplified using Taqman PREAMP master mix (#4391128, ThermoFisher Scientific) and Megaplex PreAMP Primers and then amplified using high multiplexed Megaplex Primer Pool (#4444766, ThermoFisher Scientific) and the TaqMan 2× Universal Master Mix II (#4440040, ThermoFisher Scientific) on TaqMan rodent MicroRNA A/B cards Array version 3.0 (#4444909, ThermoFisher Scientific).
We then determined the identity of the miRs within FAP-derived exosomes, by performing a Taqman-based miR expression microarray from exosomes isolated from the supernatant of FAPs derived by mdx mice treated for 15 days with TSA or control vehicle (CTR).

[2] = test system: miR-206; test: qPCR of exosomal miR-206 from dissociated tibialis anterior muscles; format: in vivo, mdx mice; conditions: TSA-treated mdx muscle compared to untreated control
Experimental: Exosomes were purified from tibialis anterior gently dissociated in serum-free DMEM (24 h). Cell debris and organelles were eliminated by centrifugation at 2,000 g for 20 min and exosomes were isolated using TEIR.
For microRNA validation, Total exosomal RNA was extracted with Total Exosome RNA Protein Isolation Kit (#4478545, Invitrogen by Thermo Fisher Scientific) and was retro-transcribed using the Qiagen reverse transcription kit (miScript II RT Kit, #218161, Qiagen) and pre-amplified using (miScript PreAMP PCR Kit, #331451, Qiagen).
All the conditions are provided in the manufacturer protocol.
(§1) Of note, transgenic miR-206 upregulation has been exploited as tool for the treatment of DMD and other muscular disorders (Liu et al., 2012; Williams et al., 2009; Fry et al., 2017). […] The same pattern could be observed in mdx mice, in which an abundant miR-206 signal was detected in the interstitium of tibialis anterior muscles, overlapping with the immunofluorescence staining of the FAP's marker Sca-1 (FIG. 3H). […] We performed a quantitative assessment of exosomal miR-206, by isolating whole tibialis anterior (TA) muscles from TSA-treated mdx muscle or untreated control mdx mice, followed by gentle dissociation and exosome isolation.

[3] = test system: miR-206; test: miR-206 in situ hybridization of tibialis anterior sections; format: in vivo; conditions: young mdx mice (1.5 months of age)
Experimental: Animals were used at the specified age and treated for the indicated periods with daily intra peritoneal injections of Trichostatin A, TSA (0.6 mg/kg/day; #T8552, Sigma), dissolved in phospate-saline solution or in phospate-saline alone as vehicle control (CTR). Muscle injury was performed by intramuscular injection in Tibliais Anterior (TA) of Cardiotoxin—CTX− (10 μM, 10 mg/mL) (#L8102, Lotaxan Valence, France, http://www.latoxan.com), 3 days before mice sacrifice. […]
as §1

CC(/C=C/C(=O)NO)=C\[C@@H](C)C(=O)c1ccc(N(C)C)cc1 [TSA, Trichostatin A]
miRs in exosomes from FAPs [1]: several miRs up-regulated
increase of miR-206 [2]: ~7 fold
amount of interstitial miR-206 signal associated with Sca-1 staining [3]: increased
